Experimental data from patent EP1144624B1, “HUMAN AND MOUSE TREK-1 POTASSIUM CHANNEL PROTEIN AND THEIR USE” (CENTRE NATIONAL DE LA RECHERCHE SCIENTIFIQUE, priority 1999, dated 2000).

Experiments:
[1] = test system: Mouse TREK-1; settings: whole cell, voltage ramp from holding potential -80 mV, room temperature; 0.8 mM chloroform, 1 mM halothane, 2 mM isoflurane, 0.6 mM diethyl ether (Figs. 1-3)
Description: (§1) As performed herein, COS cells were seeded at a density of 20,000 cells per 35 mm dish 24 hours prior to transfection. Cells were transfected by the DEAE dextran protocol (1 µg DNA per plate). Mouse TREK-1 (GenBank Accession No. U73488), human TASK (GenBank Accession No. AF006823) and mouse TRAAK (GenBank Accession No. AF056492) fragments were amplified by polymerase chain reaction (PCR) and subcloned into the pIRES-CD8 vector. Transfected cells were visualized 48 hours after transfection using the anti-CD8 antibody coated beads method. For whole cell and excised patch experiments, the internal solution was 150 mM KCl, 3 mM MgCl2, 5mM EGTA and 10 mM HEPES at pH 7.2 with KOH and the external medium contained 150 mM NaCl, 5 mM KCL, 3 mM MgCl2, 1 mM CaCl2, 10 mM HEPES at pH 7.4 with NaOH. Cells were continuously superfused with a microperfusion system during the time course of the experiments (0.1 ml/min) performed at room temperature. A RK300 patch clamp amplifier (Biologic, Grenoble, France) was used for whole cell as well as single channel recordings. Ionic currents were monitored and recorded continuously using a DAT recorder (Biologic, Grenoble, France). Subsequently, data were replayed and sampled using pClamp software. Data analysis were performed using clampfit (pClamp) for whole cell recording as well as Biopatch (Biologic) software for single channel recordings. Membrane capacitance was measured during a […] hyperpolarizing step from a holding potential of -80 mV.
(§2) General anesthetics were directly dissolved in saline solutions. All experiments were performed at room temperature (24°C). Solutions were prepared every 3 hours in gas-tight bottles as stock solutions (calculated concentrations of 5 10 mM). Serial dilutions were prepared just prior to the electrophysiological experiment. 2.5 ml of each experimental solution at the desired concentration was placed in a syringe connected to the experimental superfusion system. The electrophysiological measurements were performed within 45 minutes.
(§3) The actual concentrations of anesthetics were subsequently determined by means of a gas chromatography method (HP 6890 equipped with a DB624 column) using FID detection. Sampled (2.5 ml of solution) were collected prior to (t0) and after perfusion (t45) through the experimental setup. Solutions were collected using gas impermeable tubing and stored in sealed glass containers at 4°C for subsequent analysis. Samplings and measurements were performed in duplicate. […] In the dose effect curves, the threshold concentrations were estimated as concentrations producing an increase higher than 10% in current amplitude.

[2] = test system: human TASK; settings: whole cell, voltage ramp from holding potential -80 mV, room temperature; 0.8 mM chloroform, 1 mM halothane, 2 mM isoflurane, 0.6 mM diethyl ether (Figs. 1-3)
Description: as §1, §2, §3

[3] = test system: human TREK-1 channel; assay: Whole cell patch clamp of transiently transfected COS cells expressing human TREK-1; assay type: cell-based
Text: The functional properties of the human TREK-1 channel were studied on the basis of transfected COS cells temporarily expressing the protein. Like the murine channel, the human channel is selective for potassium and is activated by cis-unsaturated fatty acids, volatile anesthetics and by stretching of the plasma membrane. The currents are recordings in the whole-cell configuration of the patch-clamp technique (imposed potential gradient from -130 to +100 mV). The inverse potential of the currents follow the equilibrium potential of potassium when the extracellular concentration of potassium ions climbs from 5 to 155 mM. […] When a pressure of -66 mmHg is applied on the membrane, the TREK-1 currents are activated in a reversible manner.
(§4) Subsequently, data were replayed and sampled using pClamp software.

[4] = test system: mouse TRAAK; assay: Whole cell patch clamp of transfected COS cells expressing TRAAK; assay type: cell-based; settings: voltage ramp from holding potential -80 mV, room temperature, 0.8 mM chloroform, 1 mM halothane, 2 mM isoflurane, 0.6 mM diethyl ether (Figs. 1-3)
Description: as §4
General anesthetics were directly dissolved in saline solutions. All experiments were performed at room temperature (24°C). […] The electrophysiological measurements were performed within 45 minutes.
as §3

[5] = test system: COS cells expressing TREK-1; settings: 0.8 mM chloroform; not in mock-transfected cells, n = 5
Description: As performed herein, COS cells were seeded at a density of 20,000 cells per 35 mm dish 24 hours prior to transfection. Cells were transfected by the DEAE dextran protocol (1 µg DNA per plate). […] Transfected cells were visualized 48 hours after transfection using the anti-CD8 antibody coated beads method. For whole cell and excised patch experiments, the internal solution was 150 mM KCl, 3 mM MgCl2, 5mM EGTA and 10 mM HEPES at pH 7.2 with KOH and the external medium contained 150 mM NaCl, 5 mM KCL, 3 mM MgCl2, 1 mM CaCl2, 10 mM HEPES at pH 7.4 with NaOH. Cells were continuously superfused with a microperfusion system during the time course of the experiments (0.1 ml/min) performed at room temperature. A RK300 patch clamp amplifier (Biologic, Grenoble, France) was used for whole cell as well as single channel recordings. Ionic currents were monitored and recorded continuously using a DAT recorder (Biologic, Grenoble, France). Subsequently, data were replayed and sampled using pClamp software. […] Membrane capacitance was measured during a 10 V hyperpolarizing step from a holding potential of -80 mV. […]
General anesthetics were directly dissolved in saline solutions. […] Solutions were prepared every 3 hours in gas-tight bottles as stock solutions (calculated concentrations of 5 10 mM). […]

SMILES	effect on TREK-1 K+ current [1]	effect on TASK K+ current [2]	effect on human TREK-1 currents ([3]; concentrations employed in general anesthesia)	effect on TRAAK K+ current [4]	effect on human TREK-1 currents ([3]; arachidonic acid 10 µM in the bath)	effect on membrane potential of COS cells expressing TREK-1 [5]
FC(F)(F)C(Cl)Br (stereo not drawn) [halothane]	opened	opened	induced activation	not TRAAK, were opened		
FC(F)OC(Cl)C(F)(F)F (stereo not drawn) [Isoflurane, isoflurane]	activated	activated		without altering		
CCCCC/C=C\C/C=C\C/C=C\C/C=C\CCCC(=O)O [arachidonic acid]					induced activation	
ClC(Cl)Cl [chloroform]	strongly and reversibly activated	slightly depressed		did not effect		reversibly and reproducibly hyperpolarized
CCOCC [Diethyl ether, diethyl ether]	opened	decreased		did not affect		
